Experimental data from the CheMixHub ionic liquid set.

Test: xn = mol fraction of the nth substance listed

CCCC[P+](CC)(CCCC)CCCC.F[B-](F)(F)F + CC#N
viscosity [mPa·s], 100 kPa
Conditions	x1 = 0.004068	x1 = 0.008179	x1 = 0.01204	x1 = 0.01601	x1 = 0.01998	x1 = 0.02358	x1 = 0.02792	x1 = 0.03171	x1 = 0.03517	x1 = 0.03939
293.15 K	0.373	0.392	0.411	0.431	0.452	0.473	0.497	0.521	0.542	0.57
298.15 K	0.355	0.374	0.391	0.41	0.429	0.448	0.471	0.494	0.513	0.539
303.15 K	0.34	0.357	0.373	0.391	0.409	0.426	0.448	0.469	0.486	0.511
308.15 K	0.326	0.342	0.356	0.372	0.389	0.406	0.426	0.446	0.462	0.486
313.15 K	0.313	0.327	0.341	0.356	0.372	0.389	0.406	0.424	0.44	0.463
318.15 K	0.3	0.313	0.326	0.341	0.356	0.37	0.387	0.404	0.419	0.44

CCCC[n+]1ccn(C)c1.[Cl-] + CC#N
298.15 K, 101 kPa, x2 = 0.8012
Conditions	electrical conductivity [S/m]	viscosity [mPa·s]
–	1.53	3.52

CCCC[n+]1ccn(C)c1.COP(=O)([O-])OC + CC(=O)O.CC(=O)[O-].CC[NH+](CC)CCO
101 kPa, x2 = 0
Conditions	viscosity [mPa·s]
283.15 K	2142
298.15 K	609
353.15 K	36.02
358.15 K	30.38

CCCC[n+]1ccn(C)c1.COP(=O)([O-])OC + CC(=O)[O-].CCCC[NH2+]CCO
101 kPa, x2 = 0
Conditions	viscosity [mPa·s]
278.15 K	3503
283.15 K	2142
288.15 K	1361
293.15 K	895
298.15 K	609
303.15 K	426
308.15 K	305.8
313.15 K	224.9
318.15 K	168.9
323.15 K	129.4
328.15 K	100.9
333.15 K	79.9
338.15 K	64.25
343.15 K	52.35
348.15 K	43.18
353.15 K	36.02
358.15 K	30.38
363.15 K	25.86
368.15 K	22.22
373.15 K	19.25

[Cl-].[NH4+] + CC(=O)[O-].CC[n+]1ccn(C)c1
101 kPa
Conditions	electrical conductivity [S/m]	viscosity [mPa·s]
298.15 K, x1 = 0.0505	0.234	172
303.15 K, x1 = 0.0505	0.308	124.6
313.15 K, x1 = 0.0999	0.431	91.7
313.15 K, x1 = 0.1702	0.341	142.8
318.15 K, x1 = 0.0505	0.622	55.4
323.15 K, x1 = 0.0505	0.755	44
